Results on six compounds are retold here after PubChem BioAssay AID1918955 (Molecular Pharmacology Branch, DTP, NCI, 2023).

Broadly, the pIC50 is the negative decadic logarithm of the IC50, by convention in mol/L. For orientation: viability, T/C means the result in the treated group divided by that in the control group, in per cent.

The experiment has as its system NCI/ADR-RES complex spheroid viability. Put plainly: Anticancer human tumor NCI/ADR-RES cell line growth inhibition.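 For all read-outs here: spheroids exposed to compounds for 7 days.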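 For viability, T/C: 100% = DMSO vehicle treated spheroids.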 As to conditions: for viability, T/C: stronger effect = lower value. The procedure, abridged:
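Multicellular complex spheroids of tumor cells with human endothelial cells (HUVEC) and mesenchymal stem cells; the LSD1 inhibitor iadademstat was combined with standard-of-care or investigational agents. Top concentration at or near clinical Cmax, half-log dilutions; final DMSO ≤0.25%.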

The mark [1] stands for this setting: curve of first compound, second compound 0.1 µM.
Setting [2] is: curve of first compound, second compound 0.316 µM.
Setting [3] is: curve of first compound, second compound 1 µM.
[4] abbreviates: curve of first compound, second compound 3.16 µM.
Where [5] appears, read: curve of first compound, second compound 10 µM.
[6] abbreviates: second compound 0.1 µM, first compound 0.00949 µM.
[7] abbreviates: second compound 0.1 µM, first compound 0.03 µM.
[8] abbreviates: second compound 0.1 µM, first compound 0.0949 µM.
The mark [9] stands for this setting: second compound 0.1 µM, first compound 0.3 µM.
[10] abbreviates: second compound 0.316 µM, first compound 0.00949 µM.
Where [11] appears, read: second compound 0.316 µM, first compound 0.03 µM.
The mark [12] stands for this setting: second compound 0.316 µM, first compound 0.0949 µM.
[13] abbreviates: second compound 0.316 µM, first compound 0.3 µM.
Where [14] appears, read: second compound 1 µM, first compound 0.00949 µM.
The mark [15] stands for this setting: second compound 1 µM, first compound 0.03 µM.
[16] abbreviates: second compound 1 µM, first compound 0.0949 µM.
[17] abbreviates: second compound 1 µM, first compound 0.3 µM.
Where [18] appears, read: second compound 3.16 µM, first compound 0.00949 µM.
Setting [19] is: second compound 3.16 µM, first compound 0.03 µM.
Where [20] appears, read: second compound 3.16 µM, first compound 0.0949 µM.
Where [21] appears, read: second compound 3.16 µM, first compound 0.3 µM.
[22] abbreviates: second compound 10 µM, first compound 0.00949 µM.
The mark [23] stands for this setting: second compound 10 µM, first compound 0.03 µM.
Where [24] appears, read: second compound 10 µM, first compound 0.0949 µM.
The mark [25] stands for this setting: second compound 10 µM, first compound 0.3 µM.

Molecules are shown by their SMILES. pIC50: −log10 of the molar value. Where “and” joins values, the source holds several entries; their conditions need not be identical. Identical values can stand only once.

`Nc1ncn(C2CC(O)C(CO)O2)c(=O)n1` (stereo unspecified) + NC1CC1c1ccc(-c2cccc(O)c2)cc1: the pIC50 under setting [1] was 7.31; the pIC50 under setting [2] was 7.31; the pIC50 under setting [3] is 7.42; the pIC50 under setting [4] was 7.34; the negative logarithm of the IC50 (pIC50) under setting [5] was 7.60. The viability, T/C reads like this: (second compound 0.1 µM, first compound 0.00316 µM) 90.5%; (second compound 0.1 µM, first compound 0.01 µM) 79.4%; (second compound 0.1 µM, first compound 0.0316 µM) 61.5%; (second compound 0.1 µM, first compound 0.1 µM) 32.8%; (second compound 0.1 µM, first compound 0.316 µM) 19.9%; (second compound 0.1 µM, first compound 1 µM) 13.6%. In addition, the viability, T/C is 93.3% (second compound 0.316 µM, first compound 0.00316 µM); 83% (second compound 0.316 µM, first compound 0.01 µM); 62% (second compound 0.316 µM, first compound 0.0316 µM); 31.3% (second compound 0.316 µM, first compound 0.1 µM); 17.8% (second compound 0.316 µM, first compound 0.316 µM); 12.5% (second compound 0.316 µM, first compound 1 µM). Moreover, the viability, T/C is 88.5% (second compound 1 µM, first compound 0.00316 µM); 77.5% (second compound 1 µM, first compound 0.01 µM); 53.4% (second compound 1 µM, first compound 0.0316 µM); 30.4% (second compound 1 µM, first compound 0.1 µM); 15.8% (second compound 1 µM, first compound 0.316 µM); 10.8% (second compound 1 µM, first compound 1 µM). Moreover, the viability, T/C reads like this: (second compound 3.16 µM, first compound 0.00316 µM) 94.6%; (second compound 3.16 µM, first compound 0.01 µM) 78.3%; (second compound 3.16 µM, first compound 0.0316 µM) 61%; (second compound 3.16 µM, first compound 0.1 µM) 32%; (second compound 3.16 µM, first compound 0.316 µM) 15%; (second compound 3.16 µM, first compound 1 µM) 12.4%. Besides, the viability, T/C (second compound 10 µM, first compound 0.00316 µM) is 73.5%; the viability, T/C (second compound 10 µM, first compound 0.01 µM) was 63.7%; the viability, T/C (second compound 10 µM, first compound 0.0316 µM) was 45.5%; the viability, T/C (second compound 10 µM, first compound 0.1 µM) is 32.2%; the viability, T/C (second compound 10 µM, first compound 0.316 µM) was 16.1%; the viability, T/C (second compound 10 µM, first compound 1 µM) is 11.8%.
As for `Nc1ncn(C2CC(O)C(CO)S2)c(=O)n1` (stereo unspecified) + NC1CC1c1ccc(-c2cccc(O)c2)cc1, the pIC50 is, setting by setting: under setting [1], 8.13; under setting [2], 8.12; under setting [3], 8.17; under setting [4], 8.26; under setting [5], 8.35. Further, the viability, T/C by setting is: (second compound 0.1 µM, first compound 0.000949 µM) 89.3%; (second compound 0.1 µM, first compound 0.003 µM) 66%; under setting [6], 44.7%; under setting [7], 29.6%; under setting [8], 11.8%; under setting [9], 2.46%. The viability, T/C was 91.2% (second compound 0.316 µM, first compound 0.000949 µM); 62.5% (second compound 0.316 µM, first compound 0.003 µM); 47.8% under setting [10]; 30.6% under setting [11]; 9.77% under setting [12]; 2.75% under setting [13]. The viability, T/C (second compound 1 µM, first compound 0.000949 µM) is 88.4%; the viability, T/C (second compound 1 µM, first compound 0.003 µM) was 68%; the viability, T/C under setting [14] was 41.2%; the viability, T/C under setting [15] was 25.5%; the viability, T/C under setting [16] is 9.64%; the viability, T/C under setting [17] was 2.79%. Moreover, the viability, T/C by setting is: (second compound 3.16 µM, first compound 0.000949 µM) 85.4%; (second compound 3.16 µM, first compound 0.003 µM) 58.3%; under setting [18], 43%; under setting [19], 24.6%; under setting [20], 9.31%; under setting [21], 2.63%. The viability, T/C by setting is: (second compound 10 µM, first compound 0.000949 µM) 77%; (second compound 10 µM, first compound 0.003 µM) 54%; under setting [22], 38.6%; under setting [23], 26.2%; under setting [24], 11.8%; under setting [25], 3.24%.
Turning to `Nc1ccccc1NC(=O)c1ccc(CNC(=O)OCc2cccnc2)cc1`, the viability, T/C (compound 0.00949 µM) was 105% and 99.8%; the viability, T/C (compound 0.03 µM) is 98.3% and 100%; the viability, T/C (compound 0.0949 µM) is 88.4% and 94.4%; the viability, T/C (compound 0.3 µM) is 81.6% and 75.8%; the viability, T/C (compound 0.949 µM) was 58.7% and 49.3%; the viability, T/C (compound 3 µM) was 33.9% and 26.6%. In addition, the pIC50 (curve of compound) is 5.83 and 6.05.
Consider `CCc1c2c(nc3ccc(O)cc13)-c1cc3c(c(=O)n1C2)COC(=O)[C@]3(O)CC`, for which the viability, T/C is 4.28% and 3.34% (compound 0.000949 µM); 2.36% and 1.64% (compound 0.003 µM); 0.57% and 0.82% (compound 0.00949 µM); 6.31% and 0.48% (compound 0.03 µM); 0.34% and 0.47% (compound 0.0949 µM); 0.83% and 0.64% (compound 0.3 µM). The pIC50 (curve of compound) is over 9.02.
For `CC1COCCN1c1cc(-c2ccnn2C)c2ccnc(-c3ccn[nH]3)c2n1` (stereo unspecified), the viability, T/C is 89.5% and 71.9% (compound 0.00316 µM); 61.3% and 41.6% (compound 0.01 µM); 11.2% and 7.14% (compound 0.0316 µM); 3.93% and 1.95% (compound 0.1 µM); 2.2% and 2.13% (compound 0.316 µM); 4.12% and 1.96% (compound 1 µM). In addition, the pIC50 (curve of compound) is 7.89 and 8.14.
As to `O=C(C=Cc1cccc(S(=O)(=O)Nc2ccccc2)c1)NO` + NC1CCC(NC2CC2c2ccccc2)CC1, the pIC50 is, setting by setting: under setting [1], 7.09; under setting [2], 7.11; under setting [3], 7.11; under setting [4], 7.12; under setting [5], 7.53. The viability, T/C runs as follows: under setting [6], 99.7%; under setting [7], 85.7%; under setting [8], 39.4%; under setting [9], 24.7%; (second compound 0.1 µM, first compound 0.949 µM) 9.06%; (second compound 0.1 µM, first compound 3 µM) 2.6%. For the same compound, the viability, T/C reads like this: under setting [10], 97.1%; under setting [11], 85.2%; under setting [12], 40.7%; under setting [13], 17.5%; (second compound 0.316 µM, first compound 0.949 µM) 7.56%; (second compound 0.316 µM, first compound 3 µM) 2.59%. In addition, the viability, T/C reads like this: under setting [14], 104%; under setting [15], 82%; under setting [16], 41.5%; under setting [17], 19.4%; (second compound 1 µM, first compound 0.949 µM) 10.1%; (second compound 1 µM, first compound 3 µM) 1.53%. For the same compound, the viability, T/C reads like this: under setting [18], 95.6%; under setting [19], 78.7%; under setting [20], 42.9%; under setting [21], 17.8%; (second compound 3.16 µM, first compound 0.949 µM) 8.22%; (second compound 3.16 µM, first compound 3 µM) 5.29%. Further, the viability, T/C is, setting by setting: under setting [22], 75.2%; under setting [23], 47.6%; under setting [24], 34.4%; under setting [25], 16.6%; (second compound 10 µM, first compound 0.949 µM) 6.54%; (second compound 10 µM, first compound 3 µM) 6.09%.
